Experimental data published in patent publication US7371734B2, “Oligonucleotide compositions and their use for the modulation of immune responses” (Bioniche Life Sciences Inc., priority 2002, dated 2008).
Marks after values point to notes of the source that are not given here.

How the values were obtained:
Type in all cases: cell-based
[1] = test system: Human dendritic cells; assay: CD86 levels at the DC cell surface (flow cytometry); details: 100 μg, 48 hours
Procedure: (§1) Human dendritic cells were obtained from Clonetics (San Diego, Calif., USA) and were cultured in the medium recommended by Clonetics. DC were obtained from three different individuals (see Table 1). Major histocompatability typing was performed on each of these individuals and several of the HLA (human leukocyte antigens) types are shown.
DC from individuals B and C were seeded in 1.0 ml at 1.0×10^5 cells/ml in 6-well flat-bottomed tissue culture plates for 48 hours with 100 μg of 6 base N1A, N1B, N2A, N2B, N3A, N3B, N4A, N4B, N5A, N5B, N6A, N6B, N7A or N7B polynucleotides. The level of CD86 at the cell surface was determined after 48 hours of incubation by flow cytometry using a PE-conjugated monoclonal antibody directed to CD86 (Serotec) and analyzed by CELLQuest Pro. Results are expressed as the percentage of CD86^hi DC following treatment.

[2] = test system: Human dendritic cells; assay: MHC-II levels at the DC cell surface (flow cytometry); details: DC from individual B; 100 μg, 48 hours
Procedure: as §1
DC from individual B were seeded in 1.0 ml at 1.0×10^5 cells/ml in 6-well flat-bottomed tissue culture plates for 48 hours with 100 μg of 6 base N1A, N1B, N2A, N2B, N3A, N3B, N5A, N5B, N6A, N6B, N7A or N7B polynucleotides. The level of MHC II at the cell surface was determined after 48 hours of incubation by flow cytometry using a FITC-conjugated monoclonal antibody directed to MHC II (Serotec) and analyzed by CELLQuest Pro. Results are expressed as the percentage of MHC II^hi DC following treatment.

[3] = test system: Human dendritic cells; assay: Increase in cell size and granularity of DC (flow cytometry); details: 100 μg polynucleotide, 48 hours
Procedure: as §1
DC were seeded in 1.0 ml at 1.0×10^5 cells/ml in 6-well flat-bottomed tissue culture plates for 48 hours with 100 μg of 6 base N1A, N1B, N2A, N2B, N3A, N3B, N4A, N4B, N5A, N5B, N6A, N6B, N7A or N7B polynucleotides. Cell size (FCS: forward side scatter) and granularity (S SC: side light scatter) were determined by flow cytometry using a FACSCalibur and analyzed using the CELLQuest Pro software (both from Becton-Dickinson, San Diego, Calif., USA). Percentage of DC showing a FCS>500 units and a SSC>400 units have been determined after treatment with 3-OH, 5-OH polynucleotides for DC isolated from three different individuals.

[4] = test system: Human dendritic cells; assay: CD80 levels at the DC cell surface (flow cytometry); details: 100 μg, 48 hours
Procedure: as §1
DC from individuals B and C were seeded in 1.0 ml at 1.0×10^5 cells/ml in 6-well flat-bottomed tissue culture plates for 48 hours with 100 μg of 6 base N1A, N1B, N2A, N2B, N3A, N3B, N4A, N4B, N5A, N5B, N6A, N6B, N7A or N7B polynucleotides. The level of CD80 at the cell surface was determined after 48 hours of incubation by flow cytometry using a FITC-conjugated monoclonal antibody directed to CD80 (Serotec, Oxford, U.K.) and analyzed by CELLQuest. Results are expressed as the percentage of CD80^hi DC following treatment.

[5] = test system: Human dendritic cells; assay: Induction of IL-12 by sequences plus GM-CSF (ELISA); details: 100 μg, 48 hours
Procedure: as §1
DC from the individual B were seeded in 1.0 ml at 1.0×10^5 cells/ml in 6-well flat-bottomed tissue culture plates for 48 hours with 500 units of human recombinant GM-CSF (Clonetics) and 100 μg of 6 base polynucleotide N1A or polynucleotide N7A. Production of IL-12 was determined in 100 μl of culture supernatant using a commercial ELISA (BioSource) after 48 hours of incubation. Results are expressed as the “fold” (x) increase in IL-12 production by treated DC compared to control cells in absence or presence of recombinant GM-CSF.

[6] = test system: Human dendritic cells; assay: Induction of IL-12 production by DC (ELISA); details: 100 μg, 48 hours
Procedure: as §1
DC were seeded in 1.0 ml at 1.0×10^5 cells/ml in 6-well flat-bottomed tissue culture plates for 48 hours with 100 μg of 6 base N1A, N1B, N2A, N2B, N3A, N3B, N4A, N4B, N5A, N5B, N6A, N6B, N7A or N7B polynucleotides. Production of IL-12 was determined in 100 μl of culture supernatant using a commercial ELISA (BioSource) after 48 hours of incubation. Results are expressed as the “fold” (x) increase in IL-12 production by treated DC compared to control cells.

[7] = test system: Human dendritic cells; assay: Induction of IFN-gamma production by DC (ELISA); details: 100 μg, 48 hours
Procedure: as §1
DC were seeded in 1.0 ml at 1.0×10^5 cells/ml in 6-well flat-bottomed tissue culture plates for 48 hours with 100 μg of6 base N1A, N1B, N2A, N2B, N3A, N3B, N4A, N4B, N5A, N5B, N6A, N6B, N7A or N7B polynucleotides. Production of IFN-gamma was determined in 100 μl of culture supernatant using a commercial ELISA (BioSource) after 48 hours of incubation. Results are expressed as the “fold” (x) increase in IFN-gamma production by treated DC compared to control cells.

[8] = test system: Human dendritic cells; assay: Induction of IL-1beta production by DC (ELISA); details: 100 μg, 48 hours
Procedure: as §1
DC were seeded in 1.0 ml at 1.0×10^5 cells/ml in 6-well flat-bottomed tissue culture plates for 48 hours with 100 μg of 6 base N1A, N1B, N2A, N2B, N3A, N3B, N4A, N4B, N5A, N5B, N6A, N6B, N7A or N7B polynucleotides. Production of IL-1beta was determined in 100 μl of culture supernatant using a commercial ELISA (BioSource, Camarillo, Calif., USA) after 48 hours of incubation. Results are expressed as the “fold” (x) increase in IL-1beta production by treated DC compared to control cells.

[9] = test system: Human dendritic cells; assay: CD40 levels at the DC cell surface (flow cytometry); details: 100 μg, 48 hours
Procedure: as §1
DC from individuals B and C were seeded in 1.0 ml at 1.0×10^5 cells/ml in 6-well flat-bottomed tissue culture plates for 48 hours with 100 μg of 6 base N1A, N1B, N2A, N2B, N3A, N3B, N4A, N4B, N5A, N5B, N6A, N6B, N7A or N7B polynucleotides. The level of CD40 at the cell surface was determined after 48 hours of incubation by flow cytometry (FACSCalibur system) using a FITC-conjugated monoclonal antibody directed to CD40 and analyzed by CELLQuest Pro (all from Becton Dickinson). Results are expressed as the percentage of CD40^hi DC following treatment. The term “CD40^hi” refers to a population of cells identified by flow cytometry as having higher than baseline expression of CD40.

[10] = test system: Human dendritic cells; assay: Endocytosis of FITC-dextran by DC; details: DC from individual B, 100 μg, 24 hours, untreated control = 100
Procedure: as §1
DC from individual B were seeded in 1.0 ml at 1.0×10^5 cells/ml in 6-well flat-bottomed tissue culture plates for 24 hours with 1 mg/ml of FITC-dextran (20 kDa; Sigma-Aldrich) in the absence or presence of 100 μg of 6 base N2A, N2B, N3A, N3B, N5A, N5B, and N6B polynucleotides at 4° C. (control cell surface binding of FITC-dextran) and 37° C. (to assess endocytosis). Cells were washed three times with ice-cold phosphate buffered saline and analyzed by flow cytometry using CELLQuest Pro. Results are expressed as relative endocytic rate (normalized Δ Mean Fluorescence Value (Δ MFV)). Δ MFV=MFV of DC exposed to FITC-dextran at 37° C.−MFV of DC exposed to FITC-dextran at 4° C. Δ MFV=(ΔMFVsequence/ΔMFVcontrol)×100.

[11] = +GM-CSF (500 units human recombinant)

Row | Substance | The percentage of CD86^hi DC following treatment ([1]; DC from individual C) | The percentage of MHC-II^hi DC following treatment [2] | Percentage of DC showing a FCS > 500 units and a SSC > 400 units ([3]; DC isolated from individual A) | Percentage of DC showing a FCS > 500 units and a SSC > 400 units ([3]; DC isolated from individual C) | The percentage of CD80^hi DC following treatment ([4]; DC from individual B) | The percentage of CD80^hi DC following treatment ([4]; DC from individual C) | IL-12 production by DC from the individual B (fold increase compared to untreated DC) [5, 11] | IL-12 production by DC from the individual B (fold increase compared to untreated DC) ([5]; w/o GM-CSF) | IL-12 production by DC (fold increase compared to untreated DC) ([6]; DC isolated from individual A) | IL-12 production by DC (fold increase compared to untreated DC) ([6]; DC isolated from individual C) | IFN-gamma production by DC (fold increase compared to untreated DC) ([7]; DC isolated from individual A) | IFN-gamma production by DC (fold increase compared to untreated DC) ([7]; DC isolated from individual C) | IL-1beta production by DC (fold increase compared to untreated DC) ([8]; DC isolated from individual A) | IL-1beta production by DC (fold increase compared to untreated DC) ([8]; DC isolated from individual C) | The percentage of CD40^hi DC following treatment ([9]; DC from individual C) | The percentage of CD86^hi DC following treatment ([1]; DC from individual B) | Percentage of DC showing a FCS > 500 units and a SSC > 400 units ([3]; DC isolated from individual B) | IL-12 production by DC (fold increase compared to untreated DC) ([6]; DC isolated from individual B) | IFN-gamma production by DC (fold increase compared to untreated DC) ([7]; DC isolated from individual B) | IL-1beta production by DC (fold increase compared to untreated DC) ([8]; DC isolated from individual B) | also measured
1 | 5′GGGCGG3′ [N7A] (DNA, all phosphodiester, methylation of C not given here) | 34% | 21% | 8% | 30% | 23** % | 22** % | 11.7 fold | 9.6 fold | 1.0 fold | 0.9 fold | 1.0 fold | 1.0 fold | 1.1 fold | 1.0 fold | 23% | – | – | – | – | – | –
2 | 5′GGTGGG3′ [N2A] | 26% | 42** % | 6% | 21% | 25** % | 18% | – | – | 7.9 fold | 1.6 fold | 1.0 fold | 1.0 fold | 1.0 fold | 1.0 fold | 17% | 16% | 14% | 6.8 fold | 1.1 fold | 1.0 fold | Relative endocytic rate (normalized Δ MFV) [10]: 334; The percentage of CD40^hi DC following treatment ([9]; DC from individual B): 27** %
3 | 5′GTGTGT3′ [N1A] | 14% | 32** % | 6% | 18% | 45** % | 41** % | 15.3 fold | 14.7 fold | 15.9 fold | 2.1 fold | 0.8 fold | 1.0 fold | 1.0 fold | 1.0 fold | 24** % | 10% | 9% | 17.8 fold | 1.0 fold | 1.2 fold | The percentage of CD40^hi DC following treatment ([9]; DC from individual B): 21%
